According to paper PMC6114082, “Synthesis of aminophenylhydroxamate and aminobenzylhydroxamate derivatives and in vitro screening for antiparasitic and histone deacetylase inhibitory activity” (International Journal for Parasitology: Drugs and Drug …, 2018):

Columns and labels:
[1] = test system: L. braziliensis MHOM/BR/75/M209; assay: Antileishmanial activity, L. braziliensis promastigotes (luciferase expressing strain); type: cell-based, Leishmania braziliensis; settings: Leishmania braziliensis
Procedure: (§1) The antitrypanosomatid activity of the compounds was ascertained as follows. Leishmania parasites were cultured at 26 °C in SDM-79 medium supplemented with 10% fetal calf serum (FCS), and the antileishmanial activity was determined according to a previously published protocol for LUC-expressing and wild-type Leishmania ([Sereno et al., 2001], [Abbassi et al., 2008]). Trypanosoma brucei gambiense were grown at 26 °C in Cunningham's medium supplemented with 10% FCS, 2 mM GlutaMAX-1 (Gibco, USA), 100 U/ml penicillin, 100 μg/ml streptomycin and […] bovine hemin. The epimastigote form of Trypanosoma cruzi (strain Y cl7 scl2, lineage Tc2) (kindly provided by Philippe Truc and Christian Barnabé, UMR 177 IRD-CIRAD InterTryp, Montpellier, France) were grown at 26 °C in liver infusion tryptose (LIT) medium, supplemented with 10% FCS, 2 mM GlutaMAX™-I, 100 U/ml penicillin, 100 μg/ml streptomycin and bovine hemin (20 mg/l) (Gibco). The antitrypanosomatids activity was determined using a protocol that was initialy set up for wild-type Leishmania ([Abbassi et al., 2008]). To assess the drug activity on Toxoplasma gondii, confluent human foreskin fibroblast (HFF) monolayers were infected with YFP-type I Rh kindly provided by B. Striepen, see ([Striepen et al., 1998]) or Tomato-type II Pru kindly provided by N. Blanchard (Toulouse), expressing parasites at 5 × 10^4 per well, which were then centrifuged for 30 s at 1300 rpm and incubated for 30 min in a water bath at 37 °C to allow invasion. The wells were then washed three times with PBS to eliminate extracellular parasites, and the drugs were added at various concentrations ranging from 1 to 50 μM. After incubation for 24 h at 37 °C in a humidified atmosphere containing 5% CO2, the cells were fixed in 2.5% methanol-free formaldehyde (Tebu-bio)/PBS for 30 min at room temperature. Nuclei were stained with Hoechst 33258 (2 μg/ml, Molecular Probes) for 20 min and then washed three times with water for 10 min each time. The number of infected cells, i.e., cells harboring a parasitophorous vacuole, and the number of parasites per vacuole were determined using an Olympus ScanR microscope ( × 20 objective) and ScanR software. The parasitic index in % compared to the control was calculated as follows: (PI=((number of parasite/100 cells in treated wells) x (% of infected macrophage in treated well)/(number of parasite/100 cells in untreated wells) x (% of infected macrophage in untreated wells))*100).

[2] = test system: T. brucei MHOM/CI/81/DAL967; assay: Antitrypanosomal activity, T. brucei; type: cell-based, Trypanosoma brucei gambiense; settings: Trypanosoma brucei
Procedure: as §1

[3] = Cytotoxicity, MTT assay, THP-1; type: cell-based, human; settings: human, THP-1 cells (monocytic cell line); MTT assay
Procedure: (§2) The human monocytic cell line THP-1 was cultivated in RPMI medium supplemented with 10% FCS, 2 mM GlutaMAX, 100 U/ml penicillin, and 100 μg/ml streptomycin. HFF cells were cultivated in Dulbecco's modified Eagle's medium (DMEM) with Earle's salts containing 10% FCS, 10 mM HEPES, 1 mM sodium pyruvate, 2 mM GlutaMAX, 100 U/ml penicillin, and 100 μg/ml streptomycin. The THP-1 and HFF cells were maintained in a 5% CO2 incubator at 37 °C. Cytotoxicity was evaluated via the MTT assay, and the IC50 values were calculated using Prism software (Prism 4 for Mac OS X, version 5.0b, December, 2008).

THP-1 cells = assay: Cytotoxicity, MTT assay, THP-1; type: cell-based, human
Procedure: as §2

[4] = test system: HeLa nuclear extract (HDAC 1, 2, 6, and 8 predominant); assay: Fluorometric HDAC assay, HeLa nuclear extract; type: biochemical
Procedure: (§3) The HDACi effect against HeLa nuclear extracts and recombinant proteins were measured using a fluorometric HDAC assay kit (Active Motif, Belgium) according to the manufacturer's instructions. […] A negative control containing trichostatin A at a final concentration of 2 μM was analyzed for each independent experiment.

HDAC 8 = molecular target: T1, HDAC 8 (Homo sapiens, UniProt Q9BY41); assay: Fluorometric HDAC assay, recombinant HDAC8; type: biochemical
T1 construct: purchased Active Motif, Belgium
T1 sequence (Q9BY41 1-377): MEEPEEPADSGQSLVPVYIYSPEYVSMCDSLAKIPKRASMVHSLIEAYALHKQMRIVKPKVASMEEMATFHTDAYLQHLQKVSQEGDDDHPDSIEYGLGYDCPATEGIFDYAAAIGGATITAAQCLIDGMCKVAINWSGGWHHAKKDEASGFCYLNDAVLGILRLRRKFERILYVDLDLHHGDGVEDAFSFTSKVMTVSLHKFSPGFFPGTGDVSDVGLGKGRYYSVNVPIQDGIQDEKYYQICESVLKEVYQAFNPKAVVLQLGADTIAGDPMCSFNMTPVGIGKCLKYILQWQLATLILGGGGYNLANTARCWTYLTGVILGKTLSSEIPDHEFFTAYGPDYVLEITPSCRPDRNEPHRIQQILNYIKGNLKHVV
Procedure: as §3

## COc1cccc(CC(=O)Nc2ccc(C(=O)NO)cc2)c1 [Compound 363, N-hydroxy-4-[2-(3-methoxyphenyl)acetamido]benzamide]
[1]
  IC50: > 60000 nM
[2]
  IC50: > 60000 nM
[3]
  IC50: 3600 ± 500 nM
THP-1 cells
  selectivity index, THP-1 cells vs T. gondii: 10
[4]; 1.0 μM, screen on HeLa nuclear extract and recombinant HDAC1, 3, 6, 8 (Fig. 2A)
  HDACi effect, inhibition at single concentration: 90%
[4]; HeLa nuclear extract, read-out: HDACi HeLa IC50
  IC50: 85 ± 35 nM
HDAC 8; 363 as compared to SAHA
  Fold, HDAC 8: 0.26
HDAC 8; recombinant protein, read-out: rHDAC 8 IC50
  IC50: 863 ± 45 nM
